Values of other authors in patent US7119205B2, “Thienopyridones as AMPK activators for the treatment of diabetes and obesity” (Abbott Laboratories, priority 2003, dated 2006).

Tested on: ob/ob and db/db mice
Conditions: 8 day administration

NC(=O)c1ncn([C@@H]2O[C@H](CO)[C@@H](O)[C@H]2O)c1N [AICAR]
reduction of blood glucose: 35%
